Each structure is given as a SMILES string. pEC50: −log10 of the molar value.

Usually EC50 stands for the concentration that produces a half-maximal response. A high value points to weaker potency. As usually defined, the half-life is how long it takes for the measured level to halve. As usually defined, the bioavailability is the share of a dose that reaches the circulation, judged against a reference dose that is usually intravenous. Read a low bioavailability as little systemic uptake.

One data set can be described thus: Acute Toxicity (PO). It counts as in vivo.
The test system of the next data set is APPswe/PS1∆E9 mice. Kind of data set: Open-field assay. It counts as in vivo. The conditions noted are these: old mice, 200 ppm in chow for 3 months; data not shown.
The target of a further data set is CYP 3A4 (Homo sapiens, UniProt P08684). Kind of data set: CYP inhibition. It counts as in vitro ADME.
CYP 3A4, sequence (P08684 whole entry): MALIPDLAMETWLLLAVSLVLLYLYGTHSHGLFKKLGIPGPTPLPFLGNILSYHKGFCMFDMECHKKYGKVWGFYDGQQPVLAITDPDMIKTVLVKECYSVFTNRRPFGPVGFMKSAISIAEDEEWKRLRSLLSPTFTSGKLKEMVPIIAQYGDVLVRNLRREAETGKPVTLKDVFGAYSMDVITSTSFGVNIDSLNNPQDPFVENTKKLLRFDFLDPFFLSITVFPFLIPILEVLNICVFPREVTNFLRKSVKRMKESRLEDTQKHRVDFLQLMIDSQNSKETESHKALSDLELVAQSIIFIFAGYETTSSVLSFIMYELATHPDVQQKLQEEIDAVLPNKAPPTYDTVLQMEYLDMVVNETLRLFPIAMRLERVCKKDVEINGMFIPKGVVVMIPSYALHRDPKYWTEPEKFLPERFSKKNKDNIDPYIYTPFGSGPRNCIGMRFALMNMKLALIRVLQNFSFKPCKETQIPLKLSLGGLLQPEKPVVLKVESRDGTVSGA
The subject of another data set is rat hippocampal neurons. Kind of data set: Aβ toxicity (extracellular). Format: cell-based. The settings on record: Hippocampal neuron, read-out: Half-maximal effective concentration, Aβ toxicity (extracellular).
The target in another data set is CYP 2Cb (Homo sapiens, UniProt P11712). Kind of data set: CYP inhibition. It counts as in vitro ADME.
CYP 2Cb, sequence (P11712 whole entry): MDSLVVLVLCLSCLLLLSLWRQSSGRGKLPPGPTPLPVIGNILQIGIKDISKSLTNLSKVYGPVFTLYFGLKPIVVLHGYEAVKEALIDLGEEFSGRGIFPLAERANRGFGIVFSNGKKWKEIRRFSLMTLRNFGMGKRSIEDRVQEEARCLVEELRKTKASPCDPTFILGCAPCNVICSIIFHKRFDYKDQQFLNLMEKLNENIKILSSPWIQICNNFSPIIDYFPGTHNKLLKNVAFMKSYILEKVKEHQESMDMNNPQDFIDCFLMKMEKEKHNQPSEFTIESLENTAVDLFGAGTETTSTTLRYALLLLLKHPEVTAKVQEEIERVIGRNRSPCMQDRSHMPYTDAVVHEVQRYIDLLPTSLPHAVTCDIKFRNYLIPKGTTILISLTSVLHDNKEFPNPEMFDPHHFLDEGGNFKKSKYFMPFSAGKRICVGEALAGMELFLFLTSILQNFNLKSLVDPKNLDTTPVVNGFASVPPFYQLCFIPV
A further data set in a line: Pharmacokinetics in rats. It counts as in vivo, Sprague-Dawley rats. As to the method:
Sprague-Dawley rats had free access to food and water. CAD-31 was given by gavage to rats at 20 mg/kg in corn oil and intravenously in 15% HS 15/PBS. Whole-blood samples were collected from the jugular vein at every time point and brain collected after 20-ml saline perfusion. CAD-31 was extracted with acetonitrile and compared with standards on a TSQ Quantiva™ Triple Quadrupole Mass Spectrometer (Thermo Scientific, Waltham, MA, USA). For the mouse feeding studies, mice had free access to food containing 200 ppm CAD-31. Blood was collected by heart puncture, and the brain concentration was determined as with rats.

The subject of a further data set is protein kinases. Kind of data set: Protein Kinase Screen. Format: binding. The text has this:
Before undertaking animal experiments, it is important to determine if a new drug candidate has a chance for further clinical development by determining its pharmacological properties of bioavailability and brain penetrance as well as predicted safety.

The subject of data set [1] is hippocampal gene expression. Kind of data set: Whole-transcriptome RNA-sequencing of hippocampus. It counts as in vivo, mice. The procedure:
RNA was isolated from the hippocampus using the RNeasy Plus Universal Mini Kit (QIAGEN, Valencia, CA, USA). RNA sequencing (RNA-seq) libraries were prepared using the TruSeq Stranded mRNA Sample Prep Kit (Illumina, San Diego, CA, USA) according to the manufacturer’s instructions. Briefly, polyadenylation RNA was selected using oligo(dT) beads. Messenger RNA was then fragmented and reverse-transcribed. Complementary DNA (cDNA) was end-repaired, adenylated, and ligated with Illumina adapters with indexes. Adapter-ligated cDNA was then amplified. Libraries were pooled and sequenced single-end 50 bp on the HiSeq 2500 platform (Illumina). Sequencing reads were quality-tested using FastQC and aligned to the mm10 mouse genome using STAR Aligner version 2.4k. Mapping was carried out using default parameters (up to ten mismatches per read and up to nine multimapping locations per read). Raw gene expression was quantified across all gene exons by RNA-seq using the top-expressed isoform as a proxy for gene expression, and differential gene expression was carried out using the edge R package version 3.6.8, using replicates to compute within-group dispersion. p Values are adjusted to control the false discovery rate (FDR) by the method of Benjamini and Hochberg. Differentially expressed genes were defined as having an FDR <0.05 and a log2 fold change >1. […]

The next data set relates to HT22. Kind of data set: In vitro ischemia. It counts as cell-based. The settings on record: Mus musculus, HT-22, read-out: Half-maximal effective concentration, In vitro ischemia. The procedure: The various phenotypic screening assays were conducted as previously described. Briefly, HT-22, primary cortical neurons, or MC65 was plated and exposed to the different environmental stresses. Cells were treated with varying concentrations of CAD-31, and half-maximal effective concentration (EC50) was determined on the basis of cell viability.
• An assay that mimics the dramatic loss of neurotrophic support in the old brain is the trophic factor withdrawal assay. Primary embryonic day 18 cortical cells are plated at low density in serum-free medium. At low density, the cells die within 2 days; they can be rescued by combinations of neurotrophic growth factors, but not by one alone ([19] and unpublished data). […] BDNF is a molecule that is also involved in promoting memory and neurogenesis and is reduced in the brain with age and in AD, as well as in other neurological disorders. BDNF has long been considered a drug target for AD [23]. […] A reduction in GSH is a common denominator of old age and essentially all chronic central nervous system (CNS) diseases. J147 and CAD-31 both effectively reduce oxidative stress, with EC50 of 6 nM and 20 nM, respectively. • CAD-31 also prevents loss of energy metabolism that leads to neuron cell death in an in vitro ischemia model. […]

Regarding `Cc1ccc(N(/N=C/c2cccc(OC(F)(F)F)c2)C(=O)C(F)(F)F)c(C)c1` [CAD-31], the acute toxicity result in the data set “Acute Toxicity (PO)” is given as “no sign of acute toxicity”. Besides, the “Oral acute toxicity LD50” value in “Acute Toxicity (PO)” (observation one week post gavage) is greater than 2000 mg/kg. For the same compound, in the data set with APPswe/PS1∆E9 mice, the “open-field assay, overt toxicity” value was “no differences between groups”. For the same compound, the EC50 at 10 µM on CYP 3A4 and on CYP 2Cb was greater than 10000 nM throughout. Also, the pEC50 is 7.57 with rat hippocampal neurons, less than 5.00 at protein kinases (all kinases) and 7.33 in the data set with HT22. Besides, the “PO Max Brain, concentration” value in “Pharmacokinetics in rats” (20 mg/kg by gavage in corn oil) came to 3.0 µM. The “PO Max Brain, time” value in the data set “Pharmacokinetics in rats” (20 mg/kg by gavage in corn oil) turned out to be 8 h. Besides, the “PO Max Plasma, concentration” value in the data set “Pharmacokinetics in rats” (20 mg/kg by gavage in corn oil) is 1.7 µM. For the same compound, the “PO Max Plasma, time” value in “Pharmacokinetics in rats” (20 mg/kg by gavage in corn oil) turned out to be 8 h. In addition, the Kp at 8 h in “Pharmacokinetics in rats” (Sprague-Dawley, rat, brain and plasma, po, 20 mg/kg by gavage, at 8 h, read-out: brain-to-plasma ratio) was 2.8. In “Pharmacokinetics in rats” (Sprague-Dawley, rat, in vivo, 20 mg/kg), the half-life is 4.3 h. The bioavailability in “Pharmacokinetics in rats” (Sprague-Dawley, rat, plasma, oral, 20 mg/kg) is 31%. Also, the “interaction with known protein kinases” value in the data set on protein kinases (10 μM) is listed as “did not interact”. The “number of significant genes changed” value in data set [1] (AD model, CAD-31-treated vs AD) was determined as 730; in data set [1] (WT model, CAD-31-treated vs control) it was 29.
